Measurements from patent US8962573B2 (INSERM (Institut National de la Sante et de la Recherche …, priority 2009, dated 2015).
Values joined by “and” are separate entries in the source; they are usually repeats but may differ in a detail not shown here. Equal values may be shown once. “Also recorded” adds a separate entry of the source. Read-outs that look alike come from different tables or passages of the source.

Key:
CI-M6PR [1] = experiment: Binding assay to biotinylated CI-M6PR (displacement from adsorbed pentamannose 6-phosphate); conditions: for binding affinity to CI-M6PR (in words) / stability of affinity in buffer solution: 20° C.
Method: The binding assays of the M6 Pa were performed using biotinylated CI-M6PR. Briefly, the CI-M6PR, purified on a phosphomannan-sepharose affinity column was biotinylated by N-hydroxysuccinimide biotin. The binding of the biotinylated CI-M6PR(CI-M6PRb) to pentamannose 6-phosphate (PMP) previously adsorbed on a microtitre plate was displaced by increasing concentrations of M6 Pa. The bound CI-M6PRb was then determined using the streptavidin/peroxidase couple and OPD substrate by optical density measurements. In control experiments the method was standardized by determining of the maximal concentration of the PMP adsorbed to the microtitre plate and the CI-M6PRb concentration required to saturate the adsorbed PMP [Jeanjean A et al., Bioorg Med Chem 14: 3575-82, 2006].
The binding assays of the cathD-AMFA-1 were performed using biotinylated CI-M6PR to the same protocol used for AMFA-1 binding assay, as detailed in section 1.2.

[2] = type: in vitro ADME
Method: (§1) Previous results have shown that a complex cathepsin D/anti-cathepsin D antibody was specifically internalised by CI-M6PR in normal human fibroblasts [Laurent-Matha V et al., J Cell Sci. 111: 2539-49, 1998]. The complex was here detected by immunofluorescence staining.
The binding affinity of AMFA-1, AMFA-2, AMFA-3 and AMFA-5 to CI-M6PR was determined at 20° C. (A) or in the presence of 75% human serum at 37° C. […] Methods are identical to 1.8 section.

[3] = tested on: human normal fibroblast IMR-90 cell line; experiment: Cytotoxicity on human normal fibroblast cell line; type: cell-based; conditions: FIG. 14C
MCF7 = experiment: Cytotoxicity on breast cancer cell line MCF7; type: cell-based, human; conditions: data not shown
MDA-MB-231 = experiment: Cytotoxicity on breast cancer cell line MDA-MB-231; type: cell-based, human; conditions: data not shown
CI-M6PR [4] = target: T1, CI-M6PR (Homo sapiens, UniProt P11717); type: cell-based; conditions: pre-incubation with 10 mM
T1 construct: endogenous in cells; host or cells: normal human fibroblasts
T1 sequence (P11717 41-2491): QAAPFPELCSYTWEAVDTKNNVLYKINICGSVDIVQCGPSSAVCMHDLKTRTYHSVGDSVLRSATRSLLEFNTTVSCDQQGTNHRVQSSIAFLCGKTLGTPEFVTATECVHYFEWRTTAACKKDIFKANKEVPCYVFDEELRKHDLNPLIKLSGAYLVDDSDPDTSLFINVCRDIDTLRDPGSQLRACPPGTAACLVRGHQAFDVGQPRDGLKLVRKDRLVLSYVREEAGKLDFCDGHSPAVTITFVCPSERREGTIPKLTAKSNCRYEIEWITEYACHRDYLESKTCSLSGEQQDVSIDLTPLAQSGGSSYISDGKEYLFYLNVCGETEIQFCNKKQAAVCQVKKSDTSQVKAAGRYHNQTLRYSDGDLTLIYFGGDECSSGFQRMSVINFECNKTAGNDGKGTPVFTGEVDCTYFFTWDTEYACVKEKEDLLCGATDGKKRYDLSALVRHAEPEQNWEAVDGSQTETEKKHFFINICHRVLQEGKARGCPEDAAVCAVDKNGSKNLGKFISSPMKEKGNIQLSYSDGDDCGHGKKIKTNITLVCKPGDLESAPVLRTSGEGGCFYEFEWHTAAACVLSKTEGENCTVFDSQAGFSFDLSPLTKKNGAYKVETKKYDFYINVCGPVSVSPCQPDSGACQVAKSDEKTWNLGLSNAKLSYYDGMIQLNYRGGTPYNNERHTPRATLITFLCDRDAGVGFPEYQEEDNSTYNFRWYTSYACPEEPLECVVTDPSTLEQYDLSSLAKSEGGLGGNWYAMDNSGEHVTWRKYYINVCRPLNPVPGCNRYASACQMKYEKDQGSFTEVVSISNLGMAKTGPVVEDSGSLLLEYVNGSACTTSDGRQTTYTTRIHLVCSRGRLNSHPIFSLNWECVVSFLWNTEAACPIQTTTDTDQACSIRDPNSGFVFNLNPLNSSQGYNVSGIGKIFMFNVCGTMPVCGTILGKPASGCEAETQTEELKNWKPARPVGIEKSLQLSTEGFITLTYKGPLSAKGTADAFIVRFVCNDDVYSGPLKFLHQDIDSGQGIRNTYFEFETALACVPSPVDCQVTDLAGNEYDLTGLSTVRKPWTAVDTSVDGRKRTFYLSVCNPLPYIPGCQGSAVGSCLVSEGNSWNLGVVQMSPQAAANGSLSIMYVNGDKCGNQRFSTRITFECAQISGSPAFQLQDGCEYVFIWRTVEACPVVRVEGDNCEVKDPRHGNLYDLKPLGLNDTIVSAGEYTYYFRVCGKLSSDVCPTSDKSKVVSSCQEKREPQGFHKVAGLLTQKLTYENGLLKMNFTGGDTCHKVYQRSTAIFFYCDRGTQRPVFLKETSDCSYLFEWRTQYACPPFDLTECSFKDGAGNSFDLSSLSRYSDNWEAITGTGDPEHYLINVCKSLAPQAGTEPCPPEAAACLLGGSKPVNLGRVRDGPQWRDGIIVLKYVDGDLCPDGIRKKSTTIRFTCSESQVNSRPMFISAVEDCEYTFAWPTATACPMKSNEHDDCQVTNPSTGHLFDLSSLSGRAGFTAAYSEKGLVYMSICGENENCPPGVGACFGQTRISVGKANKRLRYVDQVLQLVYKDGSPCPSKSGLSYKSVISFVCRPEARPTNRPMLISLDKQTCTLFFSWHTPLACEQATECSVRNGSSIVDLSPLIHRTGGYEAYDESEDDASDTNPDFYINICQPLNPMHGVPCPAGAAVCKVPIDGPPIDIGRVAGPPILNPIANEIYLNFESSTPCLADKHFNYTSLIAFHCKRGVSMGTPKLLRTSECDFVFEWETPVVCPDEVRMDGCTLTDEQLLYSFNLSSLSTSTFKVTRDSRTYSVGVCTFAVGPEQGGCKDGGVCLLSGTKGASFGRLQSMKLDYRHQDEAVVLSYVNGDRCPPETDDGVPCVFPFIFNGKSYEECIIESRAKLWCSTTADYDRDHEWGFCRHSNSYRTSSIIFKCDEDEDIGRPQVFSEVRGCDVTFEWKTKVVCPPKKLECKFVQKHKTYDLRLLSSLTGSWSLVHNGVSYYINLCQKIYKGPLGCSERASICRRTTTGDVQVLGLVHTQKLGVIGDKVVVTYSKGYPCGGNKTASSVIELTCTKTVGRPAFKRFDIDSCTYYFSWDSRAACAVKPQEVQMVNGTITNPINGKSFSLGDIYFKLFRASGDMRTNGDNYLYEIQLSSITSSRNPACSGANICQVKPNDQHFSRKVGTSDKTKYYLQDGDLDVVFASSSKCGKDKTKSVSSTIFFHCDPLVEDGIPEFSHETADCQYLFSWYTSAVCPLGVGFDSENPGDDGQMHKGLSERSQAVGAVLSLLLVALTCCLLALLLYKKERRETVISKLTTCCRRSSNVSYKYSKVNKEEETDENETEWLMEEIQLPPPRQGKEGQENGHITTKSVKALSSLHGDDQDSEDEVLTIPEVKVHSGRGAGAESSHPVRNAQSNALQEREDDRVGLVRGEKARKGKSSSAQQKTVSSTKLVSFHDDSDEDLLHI
Method: (§2) As observed at light microscopy, 100 ng/mL neoIDUA was already internalised by MPSI fibroblasts from Scheie patient after 3 h incubation (FIG. 17 B-E). […] Glyceraldehyde 3-phosphate dehydrogenase (GAPDH) immunodetection was used as an internal control for total protein loading.

FIG.15 = experiment: FIG.15
Method: Table printed on a drawing sheet, FIG.15
(A) and in human serum (B).
First reader's note: Stability (%) matches the CI-M6PR binding affinity remaining at the last time point of incubation in human serum in the plot printed below the table.

CI-M6PR [5] = target: T1, CI-M6PR; experiment: Endocytosis of cathepsin D/anti-cathepsin D antibody complex via CI-M6PR in normal human fibroblasts (immunofluorescence); type: cell-based; conditions: cells pre-incubated with 10 mM; control cells 80%
Excerpt: as §1

[6] = tested on: MPSI fibroblasts from Scheie patient; experiment: neoIDUA cell internalisation in MPSI fibroblasts; type: cell-based, human
Method: as §2

[7] = tested on: Hurler patient fibroblasts; experiment: Secreted GAG in culture medium of Hurler patient fibroblasts (Blyscan kit); type: cell-based, human
Hurler fibroblasts = experiment: Viability of Hurler fibroblasts (MTT assay); type: cell-based, human; conditions: 100-500 ng/mL
Method: Cell viability was evaluated by MTT assay [Maynadier et al. FASEB J, 22: 671-81, 2008].

Homozygous IDUA −/− mice = experiment: Therapeutic efficacy in mucopolysaccharidosis I (MPSI) mouse model, urinary GAG; type: in vivo; conditions: 0.16 mg/kg body weight/week intravenously, 6 weeks; Mean ± SD
Method: Homozygous IDUA −/− mice (6-8 week-old) were treated intravenously with vehicle alone (control) or with 0.16 mg neoIDUA/kg body weight/week for 6 weeks. The secreted GAG were assayed in urine after 6 injections and normalized to urine creatinine concentrations using methods previously described [Barbosa et al., Glycobiology Adv. Access 13: 647-53, 2003].

**Q.** What does the source list for `NNC(=O)CCCCCO[C@H]1O[C@H](CCP(=O)(O)O)[C@@H](O)[C@H](O)[C@@H]1O.[Na].[Na]` [AMFA-1, 5-hydrazinocarbonylpentyl 6-deoxy-6-dihydroxyphosphinylmethyl-α-D-mannopyranoside disodium salt]?
**A.** binding affinity to CI-M6PR (in words) (CI-M6PR [1]): high binding affinity; binding affinity for CI-M6PR (comparison in words) (CI-M6PR [1]; FIG. 1, FIG. 14): identical to those of phosphonate 1 alone; stability in human serum (in words) ([2]; 75% (v/v) human serum, disodium salt): identical to those of phosphonate 1 alone; also recorded: stable; toxicity in human fibroblasts [3]: absence of toxicity; toxicity in human breast cancer cell line MCF7 (MCF7): no toxicity; toxicity in human breast cancer cell line MDA (MDA-MB-231): no toxicity; effect on uptake of neoIDUA by the cells (CI-M6PR [4]): totally prevented

**Q.** For “natural cathepsin D: human lysosomal enzyme, high affinity ligand for CI-M6PR with bisphosphorylated chains”, which Kd (CI-M6PR [1]; FIG. 16A, read-out: affinity for CI-M6PR (Kd)) is on record?
**A.** The Kd was 15 nM.

**Q.** With “5-hydrazinocarbonylpentyl 6-phosphate-α-D-mannopyranoside disodium salt [M6P-hexanehydrazide, reference compound]” as the molecule, how does the “stability of affinity in buffer solution” value (CI-M6PR [1]) read?
**A.** The value was “stable affinity”.

**Q.** What about the “decrease of affinity in human serum” value ([2]; 75% human serum at 37° C., after 7-8 h) of the same molecule?
**A.** The value was roughly 50%.

**Q.** And the “decrease of affinity in human serum” value ([2]; 75% human serum at 37° C., after 16 h)?
**A.** The value was 84%.

**Q.** Which results are given for `NOCCO[C@H]1O[C@H](CCP(=O)(O)O)[C@@H](O)[C@H](O)[C@@H]1O.[Na].[Na]` [AMFA-3, Disodium salt of 2-(aminoxy)ethyl 6-deoxy-6-dihydroxyphosphinylmethylene-α-D-mannopyranoside]?
**A.** binding affinity to CI-M6PR (in words) (CI-M6PR [1]): high binding affinity; stability in human serum (in words) [2]: stable; Stability (%) (FIG.15): 91%

**Q.** Which “binding affinity to CI-M6PR (in words)” value (CI-M6PR [1]) does the source give for `NNC(=O)CCn1cc(CO[C@H]2O[C@H](CCP(=O)(O)O)[C@@H](O)[C@H](O)[C@@H]2O)nn1.[Na].[Na]` [AMFA-2, Disodium salt of (Hydrazinocarbonylethyl)-1H-1,2,3-triazol-4-yl-methyl 6-Deoxy-6-dihydroxyphosphinylmethylene-α-D-mannopyranoside] here?
**A.** Its value is “high binding affinity”.

**Q.** And the “stability in human serum (in words)” value [2]?
**A.** Its value is “stable”.

**Q.** And the “Stability (%)” value (FIG.15)?
**A.** Its value is 90%.

**Q.** Which “Stability (%)” value (FIG.15) does the source give for `O=C[C@@H](O)[C@@H](O)[C@H](O)[C@H](O)COP(=O)(O)O` [M6P, mannose 6-phosphate] here?
**A.** Its value is 0%.

**Q.** What does the source list for `O=C[C@@H](O)[C@@H](O)[C@H](O)[C@H](O)COP(=O)(O)O` [M6P, mannose 6-phosphate, reference compound]?
**A.** stability of affinity in buffer solution (CI-M6PR [1]): stable affinity; decrease of affinity in human serum ([2]; human): ~50%; decrease of affinity in human serum ([2]; human, 16 h): 100%; cells that internalized the cathepsin D/anti-cathepsin D antibody complex (CI-M6PR [5]): 30%; effect on uptake of neoIDUA by the cells (CI-M6PR [4]): strongly decreased

**Q.** For `COC(=O)CCCCCO[C@H]1O[C@H](CC(C(=O)[O-])C(=O)[O-])[C@@H](O)[C@H](O)[C@@H]1O.[Na+].[Na+]` [AMFA-5, [5-methoxycarbonylpentyl 6,7-dideoxy-7-(carboxy)-α-D-manno-octopyranoside]uronate disodium salt], which “binding affinity to CI-M6PR (in words)” value (CI-M6PR [1]) is on record?
**A.** The value was “high binding affinity”.

**Q.** What about the “stability in human serum (in words)” value [2] of the same molecule?
**A.** Its value is “stable”.

**Q.** What about the “Stability (%)” value (FIG.15) of the same molecule?
**A.** Its value is 90%.

**Q.** For “5-hydrazinocarbonylpentyl 6-phosphate-α-D-mannopyranoside disodium salt [M6P-hexanehydrazide]”, which “Stability (%)” value (FIG.15) is on record?
**A.** Its value is 16%.

B1: IDUA-AMFA-1: recombinant α-L-iduronidase from baculovirus/Sf9 cells coupled to AMFA-1 (conjugate, UniProt P35475 28-653, looked up)
Alpha-L-iduronidase: APHLVHVDAARALWPLRRFWRSTGFCPPLPHSQADQYVLSWDQQLNLAYVGAVPHRGIKQVRTHWLLELVTTRGSTGRGLSYNFTHLDGYLDLLRENQLLPGFELMGSASGHFTDFEDKQQVFEWKDLVSSLARRYIGRYGLAHVSKWNFETWNEPDHHDFDNVSMTMQGFLNYYDACSEGLRAASPALRLGGPGDSFHTPPRSPLSWGLLRHCHDGTNFFTGEAGVRLDYISLHRKGARSSISILEQEKVVAQQIRQLFPKFADTPIYNDEADPLVGWSLPQPWRADVTYAAMVVKVIAQHQNLLLANTTSAFPYALLSNDNAFLSYHPHPFAQRTLTARFQVNNTRPPHVQLLRKPVLTAMGLLALLDEEQLWAEVSQAGTVLDSNHTVGVLASAHRPQGPADAWRAAVLIYASDDTRAHPNRSVAVTLRLRGVPPGPGLVYVTRYLDNGLCSPDGEWRRLGRPVFPTAEQFRRMRAAEDPVAAAPRPLPAGGRLTLRPALRLPSLLLVHVCARPEKPPGQVTRLRALPLTQGQLVLVWSDEHVGSKCLWTYEIQFSQDGKAYTPVSRKPSTFNLFVFSPDTGAVSGSYRVRALDYWARPGPFSDPVPYLEVPVPRGPPSPGNP
modifications: coupled to AMFA-1
**Q.** With B1 as the molecule, how does the “internalisation by MPSI fibroblasts (light microscopy)” value ([6]; 100 ng/mL, 3 h incubation, Scheie patient) read?
**A.** Its value is “internalised”.

**Q.** What about the “internalization in cell extracts (Western Blot)” value ([6]; after 24 h incubation) of the same molecule?
**A.** Its value is “demonstrated”.

**Q.** What about the “Secreted GAG concentrations in culture medium” value ([7]; 24 h treatment, control 0.018) of the same molecule?
**A.** The value was 0.009 µg/mL.

**Q.** What about the “Secreted GAG concentrations in culture medium” value ([7]; 48 h treatment, control 0.022) of the same molecule?
**A.** Its value is 0.016 µg/mL.

**Q.** And the “Secreted GAG concentrations in culture medium” value ([7]; 72 h treatment, control 0.032)?
**A.** The value was 0.018 µg/mL.

**Q.** And the “reduction of GAG secretion” value ([7]; from 24 to 72 h)?
**A.** Its value is “up to 50%”.

**Q.** And the “toxicity on Hurler fibroblasts” value (Hurler fibroblasts)?
**A.** The value was “not toxic”.

**Q.** What about the cell viability (Hurler fibroblasts; 72 h) of the same molecule?
**A.** Its cell viability is “slightly potentiate cell viability”.

**Q.** And the “Secreted GAG concentrations/creatinine concentrations in urine” value (Homozygous IDUA −/− mice)?
**A.** The value was 59.8 % control and 59.8 ± 9.0 % control.
